The results in this text go back to patent US20180280480A1, “COMPOSITIONS AND PEPTIDES HAVING DUAL GLP-1R AND GLP-2R AGONIST ACTIVITY” (priority 2014, published 2018).

In assay [1] the test system is diabetic db/db (BKS.Cg-m+/+Leprdb/J) male mice. Description: Oral glucose tolerance test in diabetic db/db mice. As to conditions: for Blood glucose during an oral glucose tolerance test. Area under the curve (AUC) −240 to 240 min.: Day 56, mean ± S.E.M. The class given is in vivo. How it is done:
A total of forty-six (46) diabetic db/db (BKS.Cg-m+/+Leprdb/J) male mice, 5 weeks old at arrival, was obtained from Janvier (France). The mice were acclimatized for two weeks in their new environment with free access to normal chow (Altromin 1324, Brogaarden A/S, Gentofte, Denmark) and domestic quality tap water. They were housed in groups of n=2 in a light-, temperature-, and humidity-controlled room (12-hour light: 12-hour dark cycle, lights On/Off at 04.00/16.00 h; 22±1° C.; 50±10% relative humidity). During the habituation period animals was accustomed to the experimental paradigm.
Baseline, free fed blood glucose samples were obtained bi-weekly prior to study start (blood was collected from the tail vein) in order to screen for the diabetic state. The 40 animals closest to the mean BG/BW value at day −3 were randomized into 4 groups (n=10/group; the remaining 6 animals was be discarded from the main study): Group 1: Vehicle, BID, SC. Group 2: SEQ ID NO 6, 50 nmol/kg, BID, SC. Group 3: SEQ ID NO 6, 250 nmol/kg, BID, SC. […] During day 0-58 of the experiment, animals received a subcutaneous dosing twice daily at 06.00-08.00 hours and again between 02.00-04.00 hours. Dose volume was 5 ml/kg.
On experimental day 56 an oral glucose tolerance test was performed. Animals were mildly fasted as food was removed 4 hours prior to administration of the glucose bolus. Compounds were administered 45 minutes prior to the OGTT. At t=0, mice received an oral glucose load of 2 g/kg glucose (Glucose 200 mg/ml, Fresenius Kabi, Sweden). Glucose was given as gavage via a gastrically placed tube connected to a syringe ensuring accurate dosing. Blood samples were collected from the tail vein and blood-glucose was measured at time points −60, 0, 15, 30, 60, 120 and 240 minutes after the glucose administration. Samples for measuring HbA1c was taken in parallel with blood glucose at t=−60 minutes. Mice were re-fed after the last blood sampling.

Another assay deals with T1, GLP-2R (Homo sapiens, UniProt O95838).
T1 sequence (O95838 1-553): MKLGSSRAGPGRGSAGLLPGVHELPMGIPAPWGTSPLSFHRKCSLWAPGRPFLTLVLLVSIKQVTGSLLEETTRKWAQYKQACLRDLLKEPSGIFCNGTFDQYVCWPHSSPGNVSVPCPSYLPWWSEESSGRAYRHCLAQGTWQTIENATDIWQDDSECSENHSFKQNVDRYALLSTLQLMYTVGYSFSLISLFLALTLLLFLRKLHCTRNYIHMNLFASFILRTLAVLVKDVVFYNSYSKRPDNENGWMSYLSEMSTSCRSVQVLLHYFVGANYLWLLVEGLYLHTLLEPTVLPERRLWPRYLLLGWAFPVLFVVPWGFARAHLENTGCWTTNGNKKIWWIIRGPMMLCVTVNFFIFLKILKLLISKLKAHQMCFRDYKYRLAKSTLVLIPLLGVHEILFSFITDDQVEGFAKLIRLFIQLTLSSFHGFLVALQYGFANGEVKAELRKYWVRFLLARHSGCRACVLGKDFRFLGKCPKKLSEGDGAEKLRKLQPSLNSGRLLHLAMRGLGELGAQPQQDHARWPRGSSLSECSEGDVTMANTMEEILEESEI
Description: GLP2 receptor efficacy assay (in vitro functional screen, Euroscreen or DiscoveRx). Conditions: Table 1.

Consider “R^1-HGDGSFTSELSTYLDALAARDFIAWLIQTKITDR^2 [SEQ ID NO 6]”, for which the “glucose tolerance compared to liraglutide” value in assay [1] (250 nmol/kg, P=0.03, Student's t-test) is on record as “even further improved glucose tolerance compared to animals treated with liraglutide”. In addition, the “Blood glucose during an oral glucose tolerance test. Area under the curve (AUC) −240 to 240 min.” value in assay [1] (50 nmol/kg BID SC) worked out at 3543 ± 469 mmol·min/L; in assay [1] (250 nmol/kg BID SC) it was 2472 ± 119 mmol·min/L. Besides, the “ranking of GLP-2 receptor potency” value at GLP-2R is reported as “most potent GLP-2 receptor agonist”.
